Assay [1] deals with T1, Mitochondrial complex V; ATP synthase (Bos taurus) (UniProt P05632+P00829+P05631+P05630). As to the kind of experiment: Inhibitory activity against mitochondrial ATP synthase from bovine. It counts as protein-complex assay.
Assay [2] addresses T1, Mitochondrial complex V; ATP synthase (Bos taurus). The assay can be described thus: Inhibitory activity against mitochondrial ATP hydrolase from bovine. It is filed as protein-complex assay.
Assay [3] shares this target. The assay can be described thus: Inhibitory activity against mitochondrial ATP synthase from bovine.

As to `S=C(Nc1ccc(Cl)cc1)O[C@@H](Cn1ccnc1)c1ccc(Cl)cc1Cl`, the values for the Inhibition in assay [1] and in assay [2] were 140 nM and greater than 100 µM, respectively.

For `N#Cc1cccc(C(=O)N/C(=N\[C@@H](Cn2ccnc2)c2ccc(Cl)cc2Cl)Nc2ccc(Cl)cc2)c1`, the results for the Inhibition in assay [1] and in assay [3] were greater than 100000 nM and greater than 100 µM, respectively.

Turning to `N#Cc1cccc(C(=O)N/C(=N\[C@H](Cn2ccnc2)c2ccc(Cl)cc2Cl)Nc2ccc(Cl)cc2)c1`, the figures for the Inhibition in assay [1] and in assay [2] were 18 nM and greater than 100 µM, respectively.

In the case of `S=C(Nc1ccc(Cl)cc1)O[C@H](Cn1ccnc1)c1ccc(Cl)cc1Cl`, the Inhibition was 3600 nM in assay [1] and greater than 100 µM in assay [2].

As to `S=C(Nc1ccc(Cl)cc1Cl)O[C@@H](Cn1ccnc1)c1ccc(Cl)cc1Cl`, the results for the Inhibition in assay [1] and in assay [2] were 19 nM and greater than 100 µM, respectively.

As for `S=C(Nc1ccc(Cl)cc1Cl)O[C@H](Cn1ccnc1)c1ccc(Cl)cc1Cl`, the Inhibition is 2200 nM in assay [1] and greater than 100 µM in assay [2].

The record behind these values is ChEMBL document CHEMBL1139562, “A switch in enantiomer preference between mitochondrial F1F0-ATPase chemotypes” (Bioorg Med Chem Lett, 2005).
